Assay results as given in patent US20180207228A1, “PEPTIDE COMBINATIONS AND USES THEREOF FOR TREATING GRASS ALLERGY” (ALK-Abelló A/S, priority 2015, published 2018).
Where no end group is shown, it is not given here.

System: grass pollen allergic donor derived TCL-03 lines
Assay: Extended cross-reactivity study, proliferation on TCL03 DK1+DK2 (Study XR2), scoring
Type: cell-based, human
Parameters: Cross-reactivity score: scale not given here
Settings: for cross-reactivity of homologue / cross-reactivity score of homologue: 2 μg/ml, 20 donors; for cross-reactivity score of homologue: score 0 to 7
[1] = homologue of peptide 206 (Phl p 1), Table 42
[2] = homologue of peptide 205 (Phl p 1), Table 41
[3] = homologue of peptide 211 (Phl p 1), Table 44
[4] = homologue of peptide 207 (Phl p 1), Table 43
[5] = homologue of peptide 238 (Phl p 5), Table 48
[6] = homologue of peptide 217 (Phl p 3), Table 45
[7] = homologue of peptide 285, Table 50

Compound: GEEQKLRSAGELELQFRRVK-OH [compound 377]
- Cross-reactivity score [1]: 2

Compound: YHFDLSGHAFGSMAKKGEEQ-OH [compound 372]
- cross-reactivity of homologue: very high reactivity
- Cross-reactivity score [2]: 7

Compound: WGAIWRIDPPKPLKGPFTIR-OH [compound 391]
- Cross-reactivity score [3]: 0.5

Compound: AGELELQFRRVKSKYPDGTK-OH [compound 383]
- cross-reactivity of homologue: considerable cross-reactivity
- Cross-reactivity score [4]: 6

Compound: ERDFLTSLTKDIPPRQLYAK-OH [compound 398]
- cross-reactivity score of homologue: 1
- Cross-reactivity score (homologue of peptide 222 (Phl p 4), Table 46): 1

Compound: AGELELQFRRVKSKYPEGTK-OH [compound 382]
- cross-reactivity of homologue: considerable cross-reactivity
- Cross-reactivity score [4]: 3

Compound: VDKIDAAYKIAATAANAAPA-OH [compound 399]
- Cross-reactivity score (homologue of peptide 235 (Phl p 5), Table 53): 5

Compound: WGAIWRKDSDKPIKFPVTVQ-OH [compound 396]
- Cross-reactivity score [3]: 0.5

Compound: YHFDLSGKAFGAMAKKGEED-OH [compound 371]
- Cross-reactivity score [2]: 2

Compound: GEEENVRGAGELELQFRRVK-OH [compound 379]
- Cross-reactivity score [1]: 1

Compound: STGGAYESYKFIPTLEAAVK-OH [compound 404]
- Cross-reactivity score [5]: 5

Compound: GEEEKLRKAGIIDMKFRRVK-OH [compound 381]
- Cross-reactivity score [1]: 0.5

Compound: GEEDKLRKAGELMLQFRRVK-OH [compound 376]
- Cross-reactivity score [1]: 0

Compound: WGAVWRIDTPDKLTGPFTVR-OH [compound 393]
- cross-reactivity of homologue: considerable cross-reactivity
- Cross-reactivity score [3]: 4

Compound: WGAIWRVDTPDKLTGPFTVR-OH [compound 392]
- cross-reactivity of homologue: considerable cross-reactivity
- Cross-reactivity score [3]: 5

Compound: TDMNYEQIAAYHFDLAGTAF-OH [compound 370]
- Cross-reactivity score (homologue of peptide 204 (Phl p 1), Table 40): 2

Compound: AGELTLQFRRVKSKYPSGTK-OH [compound 318]
- Cross-reactivity score [4]: 0

Compound: GLNDKLRHYGIFDLEFRRVR-OH [compound 378]
- Cross-reactivity score [1]: 0

Compound: STGGAYQSYKFIPALEAAVK-OH [compound 406]
- Cross-reactivity score [5]: 4

Compound: YHFDLAGTAFGAMAKKGEEE-OH [compound 375]
- cross-reactivity of homologue: very high reactivity
- Cross-reactivity score [2]: 7

Compound: CC[C@H](C)[C@H](NC(=O)[C@H](CC(N)=O)NC(=O)[C@H](CC(C)C)NC(=O)[C@@H](NC(=O)[C@H](CC(C)C)NC(=O)[C@@H](NC(=O)[C@H](CCCCN)NC(=O)[C@H](C)NC(=O)[C@H](CC(=O)O)NC(=O)[C@H](CO)NC(=O)CN)[C@@H](C)O)C(C)C)C(=O)N[C@@H](CCCCN)C(=O)N[C@@H](Cc1ccc(O)cc1)C(=O)N[C@H](C(=O)N[C@@H](CCCNC(=N)N)C(=O)N1CCC[C@H]1C(=O)NCC(=O)N[C@@H](CC(=O)O)C(=O)N[C@H](C(=O)N[C@@H](CC(C)C)C(=O)O)[C@@H](C)O)[C@@H](C)O [compound 328]
- cross-reactivity of homologue: considerable cross-reactivity
- Cross-reactivity score [6]: 5

Compound: YGIFDLEFRRVRSKYQGGQK-OH [compound 384]
- Cross-reactivity score [4]: 0.5

Compound: VDKIDAAYKIAATAANAAPAN-OH [compound 417]
- Cross-reactivity score (homologue of peptide 286 (Phl p 5), Table 52): 7

Compound: CC[C@H](C)[C@H](NC(=O)[C@H](Cc1ccccc1)NC(=O)[C@H](CCCCN)NC(=O)[C@H](Cc1ccc(O)cc1)NC(=O)[C@@H](NC(=O)[C@H](CCC(=O)O)NC(=O)[C@H](Cc1ccc(O)cc1)NC(=O)[C@H](C)NC(=O)CNC(=O)[C@H](C)NC(=O)[C@@H](NC(=O)[C@@H](N)CO)[C@@H](C)O)[C@@H](C)O)C(=O)N1CCC[C@H]1C(=O)N[C@@H](CO)C(=O)N[C@@H](CC(C)C)C(=O)N[C@@H](CCC(=O)O)C(=O)N[C@@H](C)C(=O)N[C@@H](C)C(=O)N[C@H](C(=O)N[C@@H](CCCCN)C(=O)O)C(C)C [compound 363]
- Cross-reactivity score [5]: 5

Compound: WGSIWRVDTPDKLTGPFTVR-OH [compound 395]
- cross-reactivity of homologue: considerable cross-reactivity
- Cross-reactivity score [3]: 3

Compound: CC[C@H](C)[C@H](NC(=O)[C@H](Cc1ccccc1)NC(=O)[C@H](CCCCN)NC(=O)[C@H](Cc1ccc(O)cc1)NC(=O)[C@@H](NC(=O)[C@H](CCC(=O)O)NC(=O)[C@H](Cc1ccc(O)cc1)NC(=O)[C@H](C)NC(=O)CNC(=O)CNC(=O)[C@@H](NC(=O)[C@@H](N)CO)[C@@H](C)O)[C@@H](C)O)C(=O)N1CCC[C@H]1C(=O)N[C@@H](CO)C(=O)N[C@@H](CC(C)C)C(=O)N[C@@H](CCC(=O)O)C(=O)N[C@@H](C)C(=O)N[C@@H](C)C(=O)N[C@H](C(=O)N[C@@H](CCCCN)C(=O)O)C(C)C [compound 405]
- Cross-reactivity score [5]: 5

Compound: AYQSYKFIPALEAAVKQSYA-OH [compound 416]
- cross-reactivity score of homologue: 1
- Cross-reactivity score [7]: 1

Compound: AGELELKFRRVKSEYPEGTK-OH [compound 385]
- Cross-reactivity score [4]: 1

Compound: AYESYKFIPTLEAAVKQAYA-OH [compound 413]
- Cross-reactivity score [7]: 6

Compound: YHFDLSGHAFGSMAKKGEEE-OH [compound 373]
- cross-reactivity of homologue: very high reactivity
- Cross-reactivity score [2]: 6

Compound: GEEQKLRSAGELELKFRRVK-OH [compound 380]
- Cross-reactivity score [1]: 0.5

Compound: YHFDLSGKAFGAMAKKGEEQ-OH [compound 374]
- Cross-reactivity score [2]: 3

Compound: CC[C@H](C)[C@H](NC(=O)[C@H](Cc1ccccc1)NC(=O)[C@@H](N)CCCCN)C(=O)N1CCC[C@H]1C(=O)N[C@@H](C)C(=O)N[C@@H](CC(C)C)C(=O)N[C@@H](CCC(=O)O)C(=O)N[C@@H](C)C(=O)N[C@@H](C)C(=O)N[C@H](C(=O)N[C@@H](CCCCN)C(=O)N[C@@H](CCC(N)=O)C(=O)N[C@@H](CO)C(=O)N[C@@H](Cc1ccc(O)cc1)C(=O)N[C@@H](C)C(=O)N[C@@H](C)C(=O)N[C@H](C(=O)N[C@H](C(=O)N[C@@H](C)C(=O)N[C@H](C(=O)O)[C@@H](C)O)C(C)C)[C@@H](C)O)C(C)C [compound 409]
- Cross-reactivity score (homologue of peptide 239 (Phl p 5), Table 49): 7

Compound: WGAIWRMDTPKALVPPFSIR-OH [compound 394]
- Cross-reactivity score [3]: 1

Compound: GSDPKKLVLDIKYTRPGDTL-OH [compound 397]
- Cross-reactivity score [6]: 1
